Data as given in patent US11530218B2, “Spiro compounds as inhibitors of KRAS” (Incyte Corporation, priority 2020, dated 2022).

test system: KRAS G12C (MIA PaCa-2 cells); assay: KRAS_G12C cellular pERK HTRF assay; type: cell-based, human; settings: Homo sapiens, MIA PaCa-2; cells incubated with compound 4 hours; read-out: G12C_pERK (KRAS_G12C pERK assay IC50)
Experimental: MIA PaCa-2 (KRAS G12C; ATCC® CRL-1420), A427 (KRAS G12D; ATCC® HTB53), HPAF-II (KRAS G12D; ATCC® CRL-1997) and NCI-H838 (KRAS WT; ATCC® CRL-5844) cells are purchased from ATCC and maintained in RPMI 1640 media supplemented with 10% FBS (Gibco/Life Technologies). The cells are plated at 5000 cells per well (8 uL) into Greiner 384-well low volume, flat-bottom, tissue culture treated white plates and incubated overnight at 37° C., 5% CO2. The next morning, test compound stock solutions are diluted in media at 3x the final concentration, and 4 uL are added to the cells. The plate is mixed by gentle rotation for 30 seconds (250 rpm) at room temperature. The cells are incubated with the KRAS G12C and G12D compounds for 4 hours or 2 hours respectively at 37° C., 5% CO2.
4 uL of 4× lysis buffer with blocking reagent (1:25) (Cisbio) are added to each well and plates are rotated gently (300 rpm) for 30 minutes at room temperature. 4 uL per well of Cisbio anti Phospho-ERK 1/2 d2 is mixed with anti Phospho-ERK 1/2 Cryptate (1:1) are added to each well, mixed by rotation and incubated overnight in the dark at room temperature. Plates are read on the Pherastar plate reader at 665 nm and 620 nm wavelengths. IC50 determination is performed by fitting the curve of inhibitor percent inhibition versus the log of the inhibitor concentration using the GraphPad Prism 7 software.

| IC50 [µM] | Compound |
| --- | --- |
| 1 to 5 | C=CC(=O)N1CC2(C1)Nc1c(cnc3c(F)c(-c4c(C)ccc5[nH]ncc45)c(Cl)cc13)NC2=O [Example 7, 1-Acryloyl-9′-chloro-7′-fluoro-8′-(5-methyl-1H-indazol-4-yl)-1′,4′-dihydro-3′H-spiro[azetidine-3,2′-pyrazino[2,3-c]quinolin]-3′-one] |

molecular target: KRAS G12D (Homo sapiens, UniProt P01116, G12D); assay: KRAS G12D GDP-GTP exchange assay (bodipy-GDP/GppNHp, SOS1); type: biochemical; settings: bodipy loaded KRAS G12D 2.5 nM, 4 hours incubation after GppNHp-SOS1; read-out: G12D_exchange (KRAS_G12D exchange assay IC50)
Experimental: The inhibitor potency of the exemplified compounds was determined in a fluorescence based guanine nucleotide exchange assay, which measures the exchange of bodipy-GDP (fluorescently labeled GDP) for GppNHp (Non-hydrolyzable GTP analog) to generate the active state of KRAS in the presence of SOS1 (guanine nucleotide exchange factor). Inhibitors were serially diluted in DMSO and a volume of 0.1 μL was transferred to the wells of a black low volume 384-well plate. 5 μL/well volume of bodipy-loaded KRAS G12C diluted to 5 nM in assay buffer (25 mM Hepes pH 7.5, 50 mM NaCl, 10 mM MgCl2 and 0.01% Brij-35) was added to the plate and pre-incubated with inhibitor for 2 hours at ambient temperature. Appropriate controls (enzyme with no inhibitor or with a G12C inhibitor (AMG-510)) were included on the plate. The exchange was initiated by the addition of a 5 μL/well volume containing 1 mM GppNHp and 300 nM SOS1 in assay buffer. The 10 μL/well reaction concentration of the bodipy-loaded KRAS G12C, GppNHp, and SOS1 were 2.5 nM, 500 uM, and 150 nM, respectively. The reaction plates were incubated at ambient temperature for 2 hours, a time estimated for complete GDP-GTP exchange in the absence of inhibitor. For the KRAS G12D and G12V mutants, similar guanine nucleotide exchange assays were used with 2.5 nM as final concentration for the bodipy loaded KRAS proteins and with 4 hours and 3 hours incubation after adding GppNHp-SOS1 mixture for G12D and G12V respectively. A cyclic peptide described to selectively bind G12D mutant (Sakamoto et al., BBRC 484.3 (2017), 605-611) or internal compounds with confirmed binding were used as positive controls in the assay plates. Fluorescence intensities were measured on a PheraStar plate reader instrument (BMG Labtech) with excitation at 485 nm and emission at 520 nm.
Either GraphPad prism or XLfit was used to analyze the data. The IC50 values were derived by fitting the data to a four parameter logistic equation producing a sigmoidal dose-response curve with a variable Hill coefficient. Prism equation: Y=Bottom+(Top−Bottom)/(1+10^((Log IC50−X)*Hill slope)); XLfit equation: Y=(A+((B−A)/(1+((X/C)^D)))) where X is the logarithm of inhibitor concentration and Y is the response.

KRAS G12D, sequence (P01116 1-188 isoform P01116-2 G12D): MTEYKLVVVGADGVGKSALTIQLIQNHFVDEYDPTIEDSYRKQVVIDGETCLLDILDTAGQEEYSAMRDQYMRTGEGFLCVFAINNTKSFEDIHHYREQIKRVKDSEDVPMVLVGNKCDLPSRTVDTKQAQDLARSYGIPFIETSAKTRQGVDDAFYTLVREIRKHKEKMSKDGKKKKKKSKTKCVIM

| IC50 [µM] | Compound |
| --- | --- |
| 5 to 50 | CN(C)C1CN(c2nc3c(F)c(-c4cc(O)cc5ccccc45)c(CCCC#N)cc3c3c2NC(=O)C32CNCCO2)C1 (single isomer, unassigned) [Example 31b, 4-(4′-(3-(dimethylamino)azetidin-1-yl)-6′-fluoro-7′-(3-hydroxynaphthalen-1-yl)-2′-oxo-2′,3′-dihydrospiro[morpholine-2,1′-pyrrolo[2,3-c]quinolin]-8′-yl)butanenitrile] |
| 1 to 5 | CN1C(=O)C2(CCCNC2)c2c1c(OC[C@@H]1CCCN1C)nc1c(F)c(-c3cc(O)cc4ccccc34)c(CCCC#N)cc21 (single isomer, unassigned) [Example 33b] |
| 0.1 to 1 | CN(C)C1CN(c2nc3c(F)c(-c4cc(O)cc5ccccc45)c(CCCC#N)cc3c3c2NC(=O)C32CCCNC2)C1 (single isomer, unassigned) [Example 23b, 4-(4′-(3-(dimethylamino)azetidin-1-yl)-6′-fluoro-7′-(3-hydroxynaphthalen-1-yl)-2′-oxo-2′,3′-dihydrospiro[piperidine-3,1′-pyrrolo[2,3-c]quinolin]-8′-yl)butanenitrile] |
| 1 to 5 | CN(C)C1CN(c2nc3c(F)c(-c4cc(O)cc5ccccc45)c(Cc4ccccc4C#N)cc3c3c2NC(=O)C32CCCNC2)C1 (single isomer, unassigned) [Example 27b, 2-((4′-(3-(dimethylamino)azetidin-1-yl)-6′-fluoro-7′-(3-hydroxynaphthalen-1-yl)-2′-oxo-2′,3′-dihydrospiro[piperidine-3,1′-pyrrolo[2,3-c]quinolin]-8′-yl)methyl)benzonitrile] |
| 1 to 5 | CN(C)C1CN(c2nc3c(F)c(-c4cc(O)cc5ccccc45)c(CCC#N)cc3c3c2NC(=O)C32CCCNC2)C1 (single isomer, unassigned) [Example 25b, 3-(4′-(3-(dimethylamino)azetidin-1-yl)-6′-fluoro-7′-(3-hydroxynaphthalen-1-yl)-2′-oxo-2′,3′-dihydrospiro[piperidine-3,1′-pyrrolo[2,3-c]quinolin]-8′-yl)propanenitrile] |
| 1 to 5 | CN1CCC[C@H]1COc1nc2c(F)c(-c3cc(O)cc4ccccc34)c(CCCC#N)cc2c2c1N(CC(N)=O)C(=O)C21CCCNC1 (single isomer, unassigned) [Example 37b] |
| 1 to 5 | Cc1cc2c3c(c(N4CC(N(C)C)C4)nc2c(F)c1-c1cc(O)cc2ccccc12)NC(=O)C31CCCNC1 (single isomer, unassigned) [Example 19b, 4′-(3-(dimethylamino)azetidin-1-yl)-6′-fluoro-7′-(3-hydroxynaphthalen-1-yl)-8′-methylspiro[piperidine-3,1′-pyrrolo[2,3-c]quinolin]-2′(3′H)-one] |
| 5 to 50 | CN(C)C1CN(c2nc3c(F)c(-c4cc(O)cc5ccccc45)c(Cl)cc3c3c2NC(=O)C32CC(N)C2)C1 (stereo not shown) [Example 22, 3-amino-8′-chloro-4′-(3-(dimethylamino)azetidin-1-yl)-6′-fluoro-7′-(3-hydroxynaphthalen-1-yl)spiro[cyclobutane-1,1′-pyrrolo[2,3-c]quinolin]-2′(3′H)-one] |
| 1 to 5 | CN1CCC[C@H]1COc1nc2c(F)c(-c3cc(O)cc4ccccc34)c(CCCC#N)cc2c2c1N(CC#N)C(=O)C21CCCNC1 (single isomer, unassigned) [Example 36a] |
| 1 to 5 | CN(C)C1CN(c2nc3c(F)c(-c4cc(O)cc5ccccc45)c(Cl)cc3c3c2NC(=O)C32CC3CC2CN3)C1 (single isomer, unassigned) [Example 21b, 8′-chloro-4′-(3-(dimethylamino)azetidin-1-yl)-6′-fluoro-7′-(3-hydroxynaphthalen-1-yl)-5-azaspiro[bicyclo[2.2.1]heptane-2,1′-pyrrolo[2,3-c]quinolin]-2′(3′H)-one] |
| 1 to 5 | CN(C)C1CN(c2nc3c(F)c(-c4cc(O)cc5ccc(Cl)cc45)c(Cl)cc3c3c2NC(=O)C32CCCNC2)C1 (single isomer, unassigned) [Example 20b, 8′-chloro-7′-(7-chloro-3-hydroxynaphthalen-1-yl)-4′-(3-(dimethylamino)azetidin-1-yl)-6′-fluorospiro[piperidine-3,1′-pyrrolo[2,3-c]quinolin]-2′(3′H)-one] |
| 1 to 5 | CN(C)C1CN(c2nc3c(F)c(-c4cc(O)cc5ccccc45)c(Cc4ccccc4Cl)cc3c3c2NC(=O)C32CCCNC2)C1 (single isomer, unassigned) [Example 26b, 8′-(2-chlorobenzyl)-4′-(3-(dimethylamino)azetidin-1-yl)-6′-fluoro-7′-(3-hydroxynaphthalen-1-yl)spiro[piperidine-3,1′-pyrrolo[2,3-c]quinolin]-2′(3′H)-one] |
| 1 to 5 | CN1CCC[C@H]1COc1nc2c(F)c(-c3cc(O)cc4ccccc34)c(CCCC#N)cc2c2c1NC(=O)C21CCCNC1 (single isomer, unassigned) [Example 32b] |
| 1 to 5 | CN(C)C1CN(c2nc3c(F)c(-c4cc(O)cc5ccccc45)c(CCCC#N)cc3c3c2NCC32CCCNC2)C1 (single isomer, unassigned) [Example 28b, 4-(4′-(3-(dimethylamino)azetidin-1-yl)-6′-fluoro-7′-(3-hydroxynaphthalen-1-yl)-2′,3′-dihydrospiro[piperidine-3,1′-pyrrolo[2,3-c]quinolin]-8′-yl)butanenitrile] |
| 1 to 5 | CN(C)C1CN(c2nc3c(F)c(-c4cc(O)cc5ccccc45)c(CCCC#N)cc3c3c2NC(=O)C32CCNC2)C1 (single isomer, unassigned) [Example 30b, 4-(4′-(3-(dimethylamino)azetidin-1-yl)-6′-fluoro-7′-(3-hydroxynaphthalen-1-yl)-2′-oxo-2′,3′-dihydrospiro[pyrrolidine-3,1′-pyrrolo[2,3-c]quinolin]-8′-yl)butanenitrile] |
| 1 to 5 | CN(C)C1CN(c2nc3c(F)c(-c4cc(O)cc5ccccc45)c(CCC#N)cc3c3c2NC(=O)C32CNC2)C1 [Example 29, 3-(4′-(3-(dimethylamino)azetidin-1-yl)-6′-fluoro-7′-(3-hydroxynaphthalen-1-yl)-2′-oxo-2′,3′-dihydrospiro[azetidine-3,1′-pyrrolo[2,3-c]quinolin]-8′-yl)propanenitrile] |
| 1 to 5 | CN(C)C1CN(c2nc3c(F)c(-c4cc(O)cc5ccccc45)c(CC#N)cc3c3c2NC(=O)C32CCCNC2)C1 (single isomer, unassigned) [Example 24a, 2-(4′-(3-(dimethylamino)azetidin-1-yl)-6′-fluoro-7′-(3-hydroxynaphthalen-1-yl)-2′-oxo-2′,3′-dihydrospiro[piperidine-3,1′-pyrrolo[2,3-c]quinolin]-8′-yl)acetonitrile] |
| 1 to 5 | CN1CCC[C@H]1COc1nc2c(F)c(-c3cc(O)cc4ccccc34)c(CCCC#N)cc2c2c1N(CCO)C(=O)C21CCCNC1 (single isomer, unassigned) [Example 34b] |
